Results taken from ChEMBL document CHEMBL5055672, “Design, Synthesis, Biological Evaluation, and Computational Studies of Novel Fluorinated Candidates as PI3K Inhibitors: Targeting Fluorophilic Binding Sites” (J Med Chem, 2021).

Tests used:
Type in all cases: functional
Conditions in all cases: read-out: GI
[1] = test system: MCF7; test: Cytotoxicity against human MCF7 cells assessed as growth inhibition at 10 uM after 48 hrs by sulforhodamine B assay
[2] = test system: K562; test: Cytotoxicity against human K562 cells assessed as growth inhibition at 10 uM after 48 hrs by sulforhodamine B assay
[3] = test system: SR; test: Cytotoxicity against human SR cells assessed as growth inhibition at 10 uM after 48 hrs by sulforhodamine B assay
[4] = test system: HOP-62; test: Cytotoxicity against human HOP-62 cells assessed as growth inhibition at 10 uM after 48 hrs by sulforhodamine B assay
[5] = test system: NCI-H226; test: Cytotoxicity against human NCI-H226 cells assessed as growth inhibition at 10 uM after 48 hrs by sulforhodamine B assay
[6] = test system: UACC-62; test: Cytotoxicity against human UACC-62 cells assessed as growth inhibition at 10 uM after 48 hrs by sulforhodamine B assay
[7] = test system: OVCAR-4; test: Cytotoxicity against human OVCAR-4 cells assessed as growth inhibition at 10 uM after 48 hrs by sulforhodamine B assay
[8] = test system: CAKI-1; test: Cytotoxicity against human CAKI-1 cells assessed as growth inhibition at 10 uM after 48 hrs by sulforhodamine B assay
[9] = test system: SN12C; test: Cytotoxicity against human SN12C cells assessed as growth inhibition at 10 uM after 48 hrs by sulforhodamine B assay
[10] = test system: UO-31; test: Cytotoxicity against human UO-31 cells assessed as growth inhibition at 10 uM after 48 hrs by sulforhodamine B assay
[11] = test system: T47D; test: Cytotoxicity against human T47D cells assessed as growth inhibition at 10 uM after 48 hrs by sulforhodamine B assay
[12] = test system: HL-60(TB); test: Cytotoxicity against human HL-60(TB) cells assessed as growth inhibition at 10 uM after 48 hrs by sulforhodamine B assay
[13] = test system: MDA-MB-231; test: Cytotoxicity against human MDA-MB-231 cells assessed as growth inhibition at 10 uM after 48 hrs by sulforhodamine B assay
[14] = test system: NCI-H522; test: Cytotoxicity against human NCI-H522 cells assessed as growth inhibition at 10 uM after 48 hrs by sulforhodamine B assay
[15] = test system: EKVX; test: Cytotoxicity against human EKVX cells assessed as growth inhibition at 10 uM after 48 hrs by sulforhodamine B assay
[16] = test system: MOLT-4; test: Cytotoxicity against human MOLT-4 cells assessed as growth inhibition at 10 uM after 48 hrs by sulforhodamine B assay
[17] = test system: A549; test: Cytotoxicity against human A549 cells assessed as growth inhibition at 10 uM after 48 hrs by sulforhodamine B assay
[18] = test system: HOP-92; test: Cytotoxicity against human HOP-92 cells assessed as growth inhibition at 10 uM after 48 hrs by sulforhodamine B assay
[19] = test system: NCI-H23; test: Cytotoxicity against human NCI-H23 cells assessed as growth inhibition at 10 uM after 48 hrs by sulforhodamine B assay
[20] = test system: HCT-116; test: Cytotoxicity against human HCT-116 cells assessed as growth inhibition at 10 uM after 48 hrs by sulforhodamine B assay
[21] = test system: SF-268; test: Cytotoxicity against human SF-268 cells assessed as growth inhibition at 10 uM after 48 hrs by sulforhodamine B assay
[22] = test system: SF-295; test: Cytotoxicity against human SF-295 cells assessed as growth inhibition at 10 uM after 48 hrs by sulforhodamine B assay
[23] = test system: SF-539; test: Cytotoxicity against human SF-539 cells assessed as growth inhibition at 10 uM after 48 hrs by sulforhodamine B assay
[24] = test system: SNB-19; test: Cytotoxicity against human SNB-19 cells assessed as growth inhibition at 10 uM after 48 hrs by sulforhodamine B assay
[25] = test system: SNB-75; test: Cytotoxicity against human SNB-75 cells assessed as growth inhibition at 10 uM after 48 hrs by sulforhodamine B assay
[26] = test system: U-251; test: Cytotoxicity against human U-251 cells assessed as growth inhibition at 10 uM after 48 hrs by sulforhodamine B assay
[27] = test system: LOX IMVI; test: Cytotoxicity against human LOX IMVI cells assessed as growth inhibition at 10 uM after 48 hrs by sulforhodamine B assay
[28] = test system: OVCAR-8; test: Cytotoxicity against human OVCAR8 cells assessed as growth inhibition at 10 uM after 48 hrs by sulforhodamine B assay
[29] = test system: NCI/ADR-RES; test: Cytotoxicity against human NCI-ADR-RES cells assessed as growth inhibition at 10 uM after 48 hrs by sulforhodamine B assay
[30] = test system: 786-0; test: Cytotoxicity against human 786-0 cells assessed as growth inhibition at 10 uM after 48 hrs by sulforhodamine B assay
[31] = test system: ACHN; test: Cytotoxicity against human ACHN cells assessed as growth inhibition at 10 uM after 48 hrs by sulforhodamine B assay
[32] = Cytotoxicity against human Hs 578T cells assessed as growth inhibition at 10 uM after 48 hrs by sulforhodamine B assay
[33] = test system: BT-549; test: Cytotoxicity against human BT-549 cells assessed as growth inhibition at 10 uM after 48 hrs by sulforhodamine B assay
[34] = test system: MDA-MB-468; test: Cytotoxicity against human MDA-MB-468 cells assessed as growth inhibition at 10 uM after 48 hrs by sulforhodamine B assay

SMILES: O=S(=O)(Oc1ccc(/C=N/N=c2\scc(-c3ccccc3)n2-c2ccccc2)cc1)C(F)(F)C(F)(F)C(F)(F)C(F)(F)C(F)(F)C(F)(F)C(F)(F)C(F)(F)F
- inhibition of growth at 10 µM [1]: 46.1%

SMILES: O=S(=O)(Oc1ccc(-c2nnc(Nc3ccccc3)s2)cc1)C(F)(F)C(F)(F)C(F)(F)C(F)(F)F
- inhibition of growth at 10 µM [2]: 12.6%
- inhibition of growth at 10 µM [3]: 10.1%
- inhibition of growth at 10 µM [4]: 12.4%
- inhibition of growth at 10 µM [5]: 15.8%
- inhibition of growth at 10 µM [6]: 10.7%
- inhibition of growth at 10 µM [7]: 17.2%
- inhibition of growth at 10 µM [8]: 22.1%
- inhibition of growth at 10 µM [9]: 14.5%
- inhibition of growth at 10 µM [10]: 19.9%
- inhibition of growth at 10 µM [1]: 12.8%
- inhibition of growth at 10 µM [11]: 14.1%

SMILES: O=S(=O)(Oc1ccc(-c2nnc(Nc3ccccc3)s2)cc1)C(F)(F)C(F)(F)C(F)(F)C(F)(F)C(F)(F)C(F)(F)F
- inhibition of growth at 10 µM [12]: 29.4%
- inhibition of growth at 10 µM [3]: 80.5%
- inhibition of growth at 10 µM [13]: 13.1%

SMILES: FC(F)(F)c1ccc(/C=N/N=c2\scc(-c3ccccc3)n2-c2ccccc2)cc1
- inhibition of growth at 10 µM [1]: 41.1%

SMILES: COC(=O)/C=C1\S/C(=N\N=C\c2ccc(OS(=O)(=O)C(F)(F)C(F)(F)C(F)(F)C(F)(F)F)cc2)N(c2ccccc2)C1=O
- inhibition of growth at 10 µM [6]: 21.6%
- inhibition of growth at 10 µM [1]: 10%

SMILES: O=S(=O)(Oc1ccc(/C=N/NC(=S)Nc2ccccc2)cc1)C(F)(F)C(F)(F)C(F)(F)C(F)(F)C(F)(F)C(F)(F)C(F)(F)C(F)(F)F
- inhibition of growth at 10 µM [14]: 10.1%
- inhibition of growth at 10 µM [10]: 13.3%

SMILES: FC(F)(F)c1ccc(/C=N/NC(=S)Nc2ccccc2)cc1
- inhibition of growth at 10 µM [15]: 10.3%

SMILES: COC(=O)/C=C1\S/C(=N\N=C\c2ccc(C(F)(F)F)cc2)N(c2ccccc2)C1=O
- inhibition of growth at 10 µM [12]: 16.7%
- inhibition of growth at 10 µM [2]: 21.4%
- inhibition of growth at 10 µM [16]: 12.8%
- inhibition of growth at 10 µM [3]: 19.6%
- inhibition of growth at 10 µM [17]: 12.4%
- inhibition of growth at 10 µM [4]: 36.6%
- inhibition of growth at 10 µM [18]: 12%
- inhibition of growth at 10 µM [19]: 10.1%
- inhibition of growth at 10 µM [20]: 32.4%
- inhibition of growth at 10 µM [21]: 19.8%
- inhibition of growth at 10 µM [22]: 16.6%
- inhibition of growth at 10 µM [23]: 21%
- inhibition of growth at 10 µM [24]: 25.8%
- inhibition of growth at 10 µM [25]: 39.3%
- inhibition of growth at 10 µM [26]: 29.2%
- inhibition of growth at 10 µM [27]: 19.9%
- inhibition of growth at 10 µM [6]: 18.4%
- inhibition of growth at 10 µM [28]: 26.6%
- inhibition of growth at 10 µM [29]: 11.5%
- inhibition of growth at 10 µM [30]: 11.1%
- inhibition of growth at 10 µM [31]: 40.1%
- inhibition of growth at 10 µM [8]: 28%
- inhibition of growth at 10 µM [9]: 24.1%
- inhibition of growth at 10 µM [10]: 18.3%
- inhibition of growth at 10 µM [1]: 25.2%
- inhibition of growth at 10 µM [13]: 19.8%
- inhibition of growth at 10 µM [32]: 37.6%
- inhibition of growth at 10 µM [33]: 13.6%
- inhibition of growth at 10 µM [11]: 20.4%
- inhibition of growth at 10 µM [34]: 24.6%
